Data set [1] concerns lymphocytes which secrete antibodies (PFC). Briefly: Hemolysis plate test (PFC) according to Jerne and Nordin, in vivo immunostimulating activity. Conditions: 100 ng of peptide p.o. two hours after SRBC i.v.; spleen lymphocytes after four days; IgM PFC. Set-up: species or system inbred C3H/HeNCrlBr male mice. On the procedure:
In particular, the so-called "hemolysis plate test" has been employed (PFC) performed according to the procedure disclosed by Jerne and Nordin.
Said test is carried out by administering through intravenous route to inbred C3H/HeNCrlBr male mice (Calco-Italia) aged 10-12 weeks and of body weight about 25 g, a pyrogen-free saline solution (0.2 ml) containing 1-2 x 10⁸ blood red cells of ram (SRBC). After two hours, groups of three mice each are treated p.o. (intragastric intubation) with 0.2 ml of saline solution (control) or with 0.2 ml of saline solution containing 100 ng of the peptide under test. After four days, the mice are sacrificed and the spleens are drawn and mechanically disrupted to separate the lymphocytes. The lymphocytes so isolated are washed with minimal soil containing Earle salts (MEM) (3 x 15 ml) and then resuspended into the same soil (1 ml) at a final concentration of 150,000 cells. Each cell suspension (0.1 ml) is then diluted 1/100 with MEM soil, and 100 µl of each dilution is added in double to wells of microplates containing 25 µl of MEM soil, 25 µl of a 10 % solution of SRBC antigens and 25 µl of guinea-pig complement at a final dilution of 1/64. The whole suspension is immediately transferred by capillarity from each well onto overlapped glass holder-slides. Such slides, with their edges sealed by means of paraffin, are then put for incubation into a thermostatic chamber at 37°C for one hour.
At the end of such time, the direct hemolysis plates are counted by means of a light-contrast viewer, such plates pointing out the number of lymphocytes which secrete antibodies (PFC). The antibodies so put into evidence are of the class of the IgM's, which are proper of the primary antibody response.

The nature of data set [2]: Stability to enzymic hydrolysis in heparinized human plasma (half-life). Conditions: for half-life, times as much as that of thymopentin: relative to thymopentin.
Experimental: The incubations were carried out at 37°C, and the drawings of the plasmatic mixtures, each one of 100 µl, were stopped at the various times by addition of trifluoroacetic acid in the ratio of 10%, with successive centrifugation at 10,000 x g, for five minutes. A portion of the supernatant is subjected to chromatography under conditions suitable to put into evidence the change in concentration of the peptide tested at the various time.

Where only a bound is given, the exact number is not on record here.

In the case of “H-Arg-Lys-Asp-Val-Tyr-OH [TP5, reference compound]”, the “Plate formation % control” value in data set [1] came out at 137 % control.

Take `CC(C)[C@@H](NC(=O)C(Cc1ccc(O)cc1)C(=O)O)NC(=O)[C@H](CC(=O)O)NC(=O)C(CCCCN)C(=O)N[C@@H](N)CCCNC(=N)N` (stereo partly drawn) [Example 1, CH₃COOH.H-g-Arg-(R,S)mLys-Asp-gVal-(R,S)mTyr-OH]: in data set [1], the “Plate formation % control” value is on record as 196 % control. For the same compound, the half-life in data set [2] (human) and in data set [2] (test parallel to thymopentin) was above 360 min throughout.

On to `CC(C)[C@H](NC(=O)[C@H](CC(=O)O)NC(=O)C(CCCCN)C(=O)NC(N)CCCNC(=N)N)C(=O)N[C@@H](Cc1ccc(O)cc1)C(=O)O` (some centres unmarked) [reference compound], for which the half-life in data set [2] (human) amounted to 22 min.

In the case of `CC(C)[C@@H](NC(=O)C(Cc1ccc(O)cc1)C(=O)O)NC(=O)[C@H](CC(=O)O)NC(=O)[C@H](CCCCN)NC(=O)[C@@H](N)CCCNC(=N)N` (stereo partly drawn) [Example 3, [gVal⁴,(R,S)mTyr⁵]TP5], the “Plate formation % control” value in data set [1] is 190 % control. In data set [2] (human), the half-life came to 2.5 min. The “half-life, times as much as that of thymopentin” value in data set [2] is “about 2 times”.

Regarding `CC(C)C(C(=O)N[C@H](CC(=O)O)NC(=O)[C@H](CCCCN)NC(=O)[C@@H](N)CCCNC(=N)N)C(=O)N[C@@H](Cc1ccc(O)cc1)C(=O)O` (stereo partly drawn) [Example 2, CH₃COOH.H-Arg-Lys-gAsp-(R,S)mVal-Tyr-OH], the “Plate formation % control” value in data set [1] is 132 % control. The half-life in data set [2] (human) is 10 min. Also, the “half-life, times as much as that of thymopentin” value in data set [2] is “about 7 times”.

(Values after patent EP0393786B1, “New retro-inverse, one- or more bond bearing analogues of thymopentin, a method for synthesizing the same and their employment for the preparation of pharmaceutical” (SCLAVO S.p.A., priority 1989, dated 1990).)
